Data reported in patent US5162201A, “Analytical method making use of monoglyceride lipase” (priority 1987, dated 1992).

What was measured:
[1] = test system: monoglyceride lipase of this invention; experiment: Effects of surface active agents and metal ions on the monoglyceride lipase; assay type: biochemical, Bacillus stearothermophilus H-165; settings: for Activity of lipase (%): not added = 100, 10 min
Procedure: (§1) To 0.4 ml of a reaction solution of the above composition, 50 μl of 10 mM monolaurin (0.5% aqueous solution of "Triton X-100") was added. The resultant mixture was provisionally heated at 37° C. for 2-3 minutes and 50 μl of an enzyme solution was added to initiate a reaction. Exactly 10 minutes later, 2.5 ml of 0.5% SDS (sodium dodecyl suflate) was added to terminate the reaction. The absorbance was measured at a wavelength of 550 nm. Regarding the enzymatic activity, the activity capable of producing 1 μmole of glycerol per minute was defined as 1 Unit (1 U). The following equation will be followed upon calculation of enzymatic activity (potency) by this measurement method of enzymatic activity.

[2] = test system: monoglyceride lipase of this invention; experiment: Substrate specificity of the monoglyceride lipase; assay type: biochemical, Bacillus stearothermophilus H-165; settings: named substance used as substrate
Procedure: (8) Substrate specificity: The substrate specificity of the monoglyceride lipase of this invention was investigated under conditions which followed the below-described measurement method of enzymatic activity for the monoglyceride lipase of this invention.
as §1, with “activity. [formula] ΔA 550: Absorbance at the wavelength of 500 nm 2.95: Total volume of reaction mixture (ml)” for “activity.”

[3] = test system: monoglyceride lipase of this invention; experiment: Glycerol liberated from α,β-diglycerides by pancreatic lipase plus monoglyceride lipase; assay type: biochemical, Bacillus stearothermophilus H-165; settings: for glycerol liberated from the α,β-diglyceride substrate: α-position hydrolyzed by pancreatic lipase, then monoglyceride lipase of this invention on the β-monoglyceride formed
Procedure: 2) Substrate specificity of the monoglyceride lipase upon use of α,β-diglyceride as a substrate:
i) The below-described α,β-diglycerides were separately employed as substrates. Their α-positions were hydrolyzed by using pancreatic lipase and the monoglyceride lipase of this invention was caused to act on β-monoglycerides thus formed. Thereafter, glycerol thus liberated was analyzed.

[4] = Confirmation by HPLC of fatty acid liberated from α-linoleoyl-β-oleoyl-diglyceride; assay type: biochemical; settings: 37° C., 10 minutes, pH 8.3; monoglyceride lipase (0.5 U) added to the pancreatic lipase reaction solution
Procedure: 1) Confirmation of a fatty acid liberated from α-linoleoyl-β-oleoyl-diglyceride as a substrate, by high performance liquid chromatography (HPLC): i) Pancreas-derived lipase (50 μl) was added to 1.0 ml of a reaction solution having a composition of 0.5 mg of α-linoleoyl-β-oleoyl-diglyceride, 1.8 mg of a non-ionic surface active agent ("Triton X-100", trade name; product of Sigma Chemical Company), 3.8 mg of deoxycholic acid, 20 U of colipase, 0.15 mg of calcium chloride, and 200 μl of 0.1 M N-tri(hydroxymethyl) methyl-3-aminopropanesulfonic acid (TAPS)-NaOH (pH 8.3). After allowing them to react at 37° C. for 10 minutes, the reaction was terminated. A 15 μl aliquot of the reaction mixture was applied on a column and was then analyzed by high performance liquid chromatography under the following conditions.
Column: "Zorbox ODS" (trade name; 4.6 mm.phi.×25 cm)
Solvent: acetonitrile:H2 O (96:4)
Detection: ultraviolet absorption at 205 nm […]
ii) The monoglyceride lipase (0.5 U) was added to a reaction solution of the same composition as that employed above. A fatty acid liberated in substantially the same manner was detected by high performance liquid chromatography. As a result, linoleic acid and oleic acid were confirmed at the retention times of 23 minutes and 31 minutes respectively.

Molecule: Triton X-100
- effect of addition on the activity of the monoglyceride lipase (in words) [1]: inhibition of the activity is observed in a high concentration range
- Activity of lipase (%) ([1]; reagent concentration 0.1%): 81.7%
- Activity of lipase (%) ([1]; reagent concentration 0.5%): 46.5%

Molecule: CCCCCCCC/C=C\CCCCCCCC(=O)OC(CO)CO [Monoolein (β-monoglyceride), Monoolein]
- Activity of lipase (%) ([2]; Monolaurin = 100.0): 75.6%

Molecule: CCCCC/C=C\C/C=C\CCCCCCCC(=O)OCC(CO)OC(=O)CCCCCCC/C=C\C/C=C\CCCCC (stereo not drawn) [α,β-dilinoleylglyceride]
- glycerol liberated from the α,β-diglyceride substrate [3]: glycerol was detected

Molecule: CCCCCCCC/C=C\CCCCCCCC(=O)OCC(CO)OC(=O)CCCCCCCCCCCCCCC (stereo not drawn) [α-oleyl-β-palmitoyldiglyceride]
- glycerol liberated from the α,β-diglyceride substrate [3]: glycerol was detected

Molecule: CCCCCCCC/C=C\CCCCCCCC(=O)OC(CO)COC(=O)CCCCCCCCCCCCCCC (stereo not drawn) [α-palmitoyl-β-oleoyldiglyceride]
- glycerol liberated from the α,β-diglyceride substrate [3]: glycerol was detected

Molecule: [Ca+2].[Cl-].[Cl-] [CaCl2]
- effect of addition on the activity of the monoglyceride lipase (in words) [1]: not affected

Molecule: CCCCC/C=C\C/C=C\CCCCCCCC(=O)OCC(O)COC(=O)CCCCCCC/C=C\C/C=C\CCCCC [1,3-dilinolein]
- glycerol hydrolyzed from the substrate in the presence of the monoglyceride lipase [2]: not detected

Molecule: CCCCCCCCCCCC(=O)OCC(O)CO (stereo not shown) [Monolaurin]
- activity against the substrate (in words) [2]: maximum activity

Molecule: C[C@H](CCC(=O)O)[C@H]1CC[C@H]2[C@@H]3[C@H](O)C[C@@H]4C[C@H](O)CC[C@]4(C)[C@H]3C[C@H](O)[C@]12C [Cholic acid]
- effect of addition on the activity of the monoglyceride lipase (in words) [1]: inhibition of the activity is observed in a high concentration range

Molecule: CCCCC/C=C\C/C=C\CCCCCCCC(=O)OCC(CO)OC(=O)CCCCCCC/C=C\C/C=C\CCCCC (stereo not shown) [1,2-dilinolein]
- glycerol hydrolyzed from the substrate in the presence of the monoglyceride lipase [2]: not detected

Molecule: CCCCCCCC/C=C\CCCCCCCC(=O)OCC(COC(=O)CCCCCCC/C=C\CCCCCCCC)OC(=O)CCCCCCC/C=C\CCCCCCCC [Triolein]
- glycerol hydrolyzed from the substrate in the presence of the monoglyceride lipase [2]: not detected

Molecule: [Cl-].[Cl-].[Mg+2] [MgCl2]
- effect of addition on the activity of the monoglyceride lipase (in words) [1]: not affected

B1: pancreatic lipase: pancreas-derived lipase that hydrolyzes the α-position of α,β-diglyceride (protein, UniProt P00591 1-450, looked up)
Pancreatic triacylglycerol …: SEVCFPRLGCFSDDAPWAGIVQRPLKILPWSPKDVDTRFLLYTNQNQNNYQELVADPSTITNSNFRMDRKTRFIIHGFIDKGEEDWLSNICKNLFKVESVNCICVDWKGGSRTGYTQASQNIRIVGAEVAYFVEVLKSSLGYSPSNVHVIGHSLGSHAAGEAGRRTNGTIERITGLDPAEPCFQGTPELVRLDPSDAKFVDVIHTDAAPIIPNLGFGMSQTVGHLDFFPNGGKQMPGCQKNILSQIVDIDGIWEGTRDFVACNHLRSYKYYADSILNPDGFAGFPCDSYNVFTANKCFPCPSEGCPQMGHYADRFPGKTNGVSQVFYLNTGDASNFARWRYKVSVTLSGKKVTGHILVSLFGNEGNSRQYEIYKGTLQPDNTHSDEFDSDVEVGDLQKVKFIWYNNNVINPTLPRVGASKITVERNDGKVYDFCSQETVREEVLLTLNPC
- position of α,β-diglyceride / monoglyceride acted on, from the fatty acid liberated [4]: act on the α-position of α,β-diglyceride
- glycerol liberated from the α,β-diglyceride substrates ([3]; pancreatic lipase used singly): glycerol was not detected
